Test results: ChEMBL document CHEMBL1201862, “PubChem BioAssay data set” (2004)
Activity calls are given as the source filed them.

Tests used:
Hexokinase HKDC1 = biological target: T1, Hexokinase HKDC1 (Homo sapiens, UniProt Q2TB90); assay: activation of HKDC1 glucose phosphorylation – biochemical, W721R variant, dose response (AID 504730); assay type: functional
T1 sequence (Q2TB90 whole entry): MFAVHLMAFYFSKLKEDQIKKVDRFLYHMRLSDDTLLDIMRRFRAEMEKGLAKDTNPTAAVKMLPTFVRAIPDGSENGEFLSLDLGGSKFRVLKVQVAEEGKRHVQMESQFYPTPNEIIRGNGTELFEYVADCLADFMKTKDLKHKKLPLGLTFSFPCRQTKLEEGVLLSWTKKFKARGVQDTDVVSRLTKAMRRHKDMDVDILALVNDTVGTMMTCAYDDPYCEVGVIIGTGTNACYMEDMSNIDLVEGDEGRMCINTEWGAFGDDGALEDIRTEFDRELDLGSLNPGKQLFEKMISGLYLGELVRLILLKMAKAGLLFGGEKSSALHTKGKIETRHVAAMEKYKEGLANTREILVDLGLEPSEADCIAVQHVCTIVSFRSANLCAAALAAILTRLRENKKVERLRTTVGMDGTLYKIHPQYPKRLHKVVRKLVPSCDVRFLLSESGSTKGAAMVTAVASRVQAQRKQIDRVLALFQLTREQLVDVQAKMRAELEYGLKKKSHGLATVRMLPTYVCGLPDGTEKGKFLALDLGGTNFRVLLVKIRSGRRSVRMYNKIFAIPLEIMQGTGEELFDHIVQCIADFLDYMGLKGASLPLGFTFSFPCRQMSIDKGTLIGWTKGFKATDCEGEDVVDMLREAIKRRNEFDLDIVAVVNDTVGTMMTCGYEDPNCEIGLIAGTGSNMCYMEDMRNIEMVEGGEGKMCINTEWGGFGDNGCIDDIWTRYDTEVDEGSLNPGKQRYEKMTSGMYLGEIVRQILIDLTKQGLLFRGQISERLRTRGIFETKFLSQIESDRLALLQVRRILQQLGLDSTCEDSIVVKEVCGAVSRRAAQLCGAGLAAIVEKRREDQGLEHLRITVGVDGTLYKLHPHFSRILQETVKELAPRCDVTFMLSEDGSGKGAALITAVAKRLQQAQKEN

Hexokinase-1 = biological target: T2, Hexokinase-1 (Homo sapiens, UniProt P19367); assay: HK1 enzyme activation by HKDC1 hits – biochemical, selectivity assay for HKDC1 activator project, dose response (AID 504762); assay type: functional
T2 sequence (P19367 whole entry): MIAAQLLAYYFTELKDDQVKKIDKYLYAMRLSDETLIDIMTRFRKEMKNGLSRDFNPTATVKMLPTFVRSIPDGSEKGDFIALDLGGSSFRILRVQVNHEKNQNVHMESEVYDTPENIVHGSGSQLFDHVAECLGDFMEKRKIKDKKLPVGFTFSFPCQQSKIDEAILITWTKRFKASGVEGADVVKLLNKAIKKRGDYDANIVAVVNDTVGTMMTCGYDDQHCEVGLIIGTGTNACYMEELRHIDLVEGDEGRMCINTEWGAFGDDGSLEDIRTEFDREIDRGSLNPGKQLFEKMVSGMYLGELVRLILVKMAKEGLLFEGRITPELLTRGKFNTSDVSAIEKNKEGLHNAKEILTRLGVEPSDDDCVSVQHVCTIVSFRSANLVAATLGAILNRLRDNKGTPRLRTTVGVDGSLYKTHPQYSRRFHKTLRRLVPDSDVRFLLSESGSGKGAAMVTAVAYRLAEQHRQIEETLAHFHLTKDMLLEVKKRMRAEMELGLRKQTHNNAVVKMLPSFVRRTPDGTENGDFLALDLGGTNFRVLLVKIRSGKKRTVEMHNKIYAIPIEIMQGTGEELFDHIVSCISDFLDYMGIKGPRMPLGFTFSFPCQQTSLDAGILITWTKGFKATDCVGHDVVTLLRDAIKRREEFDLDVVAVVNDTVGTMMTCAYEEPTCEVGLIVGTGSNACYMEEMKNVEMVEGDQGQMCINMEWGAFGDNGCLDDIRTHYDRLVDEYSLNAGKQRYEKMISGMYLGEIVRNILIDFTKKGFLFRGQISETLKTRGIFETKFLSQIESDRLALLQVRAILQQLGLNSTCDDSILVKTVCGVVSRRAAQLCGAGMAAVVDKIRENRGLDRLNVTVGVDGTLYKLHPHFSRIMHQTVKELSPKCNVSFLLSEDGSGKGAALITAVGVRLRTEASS

[1] = Counterscreen for AddAB inhibitors: absorbance-based bacterial cell-based high throughput dose response assay for inhibitors of bacterial viability. [Related pubchem assays (depositor defined):AID435030, AID449728, AID449731, AID488942, AID488955, AID488956]; assay type: functional
Exodeoxyribonuclease V = Exodeoxyribonuclease V (Escherichia coli (strain K12), UniProt P04993+P07648+P08394); assay: RecBCD inhibition via phage-restricted bacterial growth – absorbance, V66 E. coli, mutant T4 phage, counter-screen for AddAB inhibitor project, dose response (AID 492957); assay type: functional, cell-based, Escherichia coli str. K-12 substr. MG1655
Estrogen receptor = biological target: T3, Estrogen receptor (Homo sapiens, UniProt P03372);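 further: potency for inhibiting coactivator peptide recruitment to the receptor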
T3 sequence (P03372 whole entry): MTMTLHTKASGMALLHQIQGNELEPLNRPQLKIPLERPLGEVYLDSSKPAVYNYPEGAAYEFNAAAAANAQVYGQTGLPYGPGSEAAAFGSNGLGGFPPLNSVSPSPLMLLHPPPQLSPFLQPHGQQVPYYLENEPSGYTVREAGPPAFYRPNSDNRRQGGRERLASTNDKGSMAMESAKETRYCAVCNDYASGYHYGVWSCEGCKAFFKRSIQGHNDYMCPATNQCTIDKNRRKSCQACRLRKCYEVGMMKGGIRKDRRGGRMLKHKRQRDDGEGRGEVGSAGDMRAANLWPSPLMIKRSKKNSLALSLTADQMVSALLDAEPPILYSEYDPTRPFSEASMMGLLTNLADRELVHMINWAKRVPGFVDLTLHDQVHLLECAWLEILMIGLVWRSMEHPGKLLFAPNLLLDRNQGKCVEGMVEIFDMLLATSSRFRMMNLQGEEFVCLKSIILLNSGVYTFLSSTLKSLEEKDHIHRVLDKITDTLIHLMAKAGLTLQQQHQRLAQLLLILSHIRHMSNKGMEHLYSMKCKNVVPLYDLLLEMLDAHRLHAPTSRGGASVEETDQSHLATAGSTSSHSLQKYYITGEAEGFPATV

[2] = biological target: T4, Ubiquitin-conjugating enzyme E2 N (Homo sapiens, UniProt P61088); assay type: functional
T4 sequence (P61088 whole entry): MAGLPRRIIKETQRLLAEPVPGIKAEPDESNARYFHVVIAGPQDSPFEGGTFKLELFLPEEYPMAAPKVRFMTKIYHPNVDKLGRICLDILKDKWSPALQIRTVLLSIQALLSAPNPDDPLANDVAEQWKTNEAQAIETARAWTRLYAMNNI

Bcl-2-related protein A1 = biological target: T5, Bcl-2-related protein A1 (Mus musculus, UniProt Q07440); assay type: functional;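 further: confirmatory dose–response counterscreen on Bfl-1, used to check hits from a UBC13 polyubiquitin inhibitor campaign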
T5 sequence (Q07440 whole entry): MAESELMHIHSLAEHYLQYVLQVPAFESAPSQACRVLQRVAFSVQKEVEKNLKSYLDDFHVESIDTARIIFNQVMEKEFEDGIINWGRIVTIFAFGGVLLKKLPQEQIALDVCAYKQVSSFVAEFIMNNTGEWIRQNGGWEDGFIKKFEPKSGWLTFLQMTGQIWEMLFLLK

[3] = biological target: T4, Ubiquitin-conjugating enzyme E2 N; assay type: functional; remark: listed apart in the source
[4] = biological target: T6, Low molecular weight phosphotyrosine protein phosphatase (Homo sapiens, UniProt P24666); assay type: functional; settings: read-out: IC50_Mean;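 further: Dose-response confirmation assay measuring inhibition of LMPTP enzyme activity by fluorescence intensity read-out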
T6 sequence (P24666 whole entry): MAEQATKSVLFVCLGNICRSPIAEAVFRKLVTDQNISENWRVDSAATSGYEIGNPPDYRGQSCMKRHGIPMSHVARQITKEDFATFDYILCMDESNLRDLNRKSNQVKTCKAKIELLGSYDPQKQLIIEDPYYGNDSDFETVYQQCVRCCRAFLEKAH

[5] = biological target: T7, Mannose-6-phosphate isomerase (Homo sapiens, UniProt P34949); assay: MPI enzyme activity inhibition – biochemical, fluorescence intensity, coupled assay, primary screen (AID 1209)
T7 sequence (P34949 whole entry): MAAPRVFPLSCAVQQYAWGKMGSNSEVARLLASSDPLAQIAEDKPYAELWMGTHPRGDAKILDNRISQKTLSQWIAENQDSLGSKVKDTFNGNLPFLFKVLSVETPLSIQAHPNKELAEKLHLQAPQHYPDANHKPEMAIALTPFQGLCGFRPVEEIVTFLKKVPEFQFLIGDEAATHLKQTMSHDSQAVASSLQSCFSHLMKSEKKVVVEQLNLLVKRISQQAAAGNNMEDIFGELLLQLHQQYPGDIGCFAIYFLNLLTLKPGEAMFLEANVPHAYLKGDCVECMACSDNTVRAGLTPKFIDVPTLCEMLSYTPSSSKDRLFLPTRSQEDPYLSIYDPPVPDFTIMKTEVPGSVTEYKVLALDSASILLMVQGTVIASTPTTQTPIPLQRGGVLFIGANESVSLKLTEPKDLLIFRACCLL

[6] = biological target: T8, Voltage-gated N-type calcium channel alpha-1B subunit/Amyloid beta A4 precursor protein-binding family A member 1 (Homo sapiens, UniProt Q00975+Q02410); assay type: protein assay
T8 sequence (Q00975 whole entry): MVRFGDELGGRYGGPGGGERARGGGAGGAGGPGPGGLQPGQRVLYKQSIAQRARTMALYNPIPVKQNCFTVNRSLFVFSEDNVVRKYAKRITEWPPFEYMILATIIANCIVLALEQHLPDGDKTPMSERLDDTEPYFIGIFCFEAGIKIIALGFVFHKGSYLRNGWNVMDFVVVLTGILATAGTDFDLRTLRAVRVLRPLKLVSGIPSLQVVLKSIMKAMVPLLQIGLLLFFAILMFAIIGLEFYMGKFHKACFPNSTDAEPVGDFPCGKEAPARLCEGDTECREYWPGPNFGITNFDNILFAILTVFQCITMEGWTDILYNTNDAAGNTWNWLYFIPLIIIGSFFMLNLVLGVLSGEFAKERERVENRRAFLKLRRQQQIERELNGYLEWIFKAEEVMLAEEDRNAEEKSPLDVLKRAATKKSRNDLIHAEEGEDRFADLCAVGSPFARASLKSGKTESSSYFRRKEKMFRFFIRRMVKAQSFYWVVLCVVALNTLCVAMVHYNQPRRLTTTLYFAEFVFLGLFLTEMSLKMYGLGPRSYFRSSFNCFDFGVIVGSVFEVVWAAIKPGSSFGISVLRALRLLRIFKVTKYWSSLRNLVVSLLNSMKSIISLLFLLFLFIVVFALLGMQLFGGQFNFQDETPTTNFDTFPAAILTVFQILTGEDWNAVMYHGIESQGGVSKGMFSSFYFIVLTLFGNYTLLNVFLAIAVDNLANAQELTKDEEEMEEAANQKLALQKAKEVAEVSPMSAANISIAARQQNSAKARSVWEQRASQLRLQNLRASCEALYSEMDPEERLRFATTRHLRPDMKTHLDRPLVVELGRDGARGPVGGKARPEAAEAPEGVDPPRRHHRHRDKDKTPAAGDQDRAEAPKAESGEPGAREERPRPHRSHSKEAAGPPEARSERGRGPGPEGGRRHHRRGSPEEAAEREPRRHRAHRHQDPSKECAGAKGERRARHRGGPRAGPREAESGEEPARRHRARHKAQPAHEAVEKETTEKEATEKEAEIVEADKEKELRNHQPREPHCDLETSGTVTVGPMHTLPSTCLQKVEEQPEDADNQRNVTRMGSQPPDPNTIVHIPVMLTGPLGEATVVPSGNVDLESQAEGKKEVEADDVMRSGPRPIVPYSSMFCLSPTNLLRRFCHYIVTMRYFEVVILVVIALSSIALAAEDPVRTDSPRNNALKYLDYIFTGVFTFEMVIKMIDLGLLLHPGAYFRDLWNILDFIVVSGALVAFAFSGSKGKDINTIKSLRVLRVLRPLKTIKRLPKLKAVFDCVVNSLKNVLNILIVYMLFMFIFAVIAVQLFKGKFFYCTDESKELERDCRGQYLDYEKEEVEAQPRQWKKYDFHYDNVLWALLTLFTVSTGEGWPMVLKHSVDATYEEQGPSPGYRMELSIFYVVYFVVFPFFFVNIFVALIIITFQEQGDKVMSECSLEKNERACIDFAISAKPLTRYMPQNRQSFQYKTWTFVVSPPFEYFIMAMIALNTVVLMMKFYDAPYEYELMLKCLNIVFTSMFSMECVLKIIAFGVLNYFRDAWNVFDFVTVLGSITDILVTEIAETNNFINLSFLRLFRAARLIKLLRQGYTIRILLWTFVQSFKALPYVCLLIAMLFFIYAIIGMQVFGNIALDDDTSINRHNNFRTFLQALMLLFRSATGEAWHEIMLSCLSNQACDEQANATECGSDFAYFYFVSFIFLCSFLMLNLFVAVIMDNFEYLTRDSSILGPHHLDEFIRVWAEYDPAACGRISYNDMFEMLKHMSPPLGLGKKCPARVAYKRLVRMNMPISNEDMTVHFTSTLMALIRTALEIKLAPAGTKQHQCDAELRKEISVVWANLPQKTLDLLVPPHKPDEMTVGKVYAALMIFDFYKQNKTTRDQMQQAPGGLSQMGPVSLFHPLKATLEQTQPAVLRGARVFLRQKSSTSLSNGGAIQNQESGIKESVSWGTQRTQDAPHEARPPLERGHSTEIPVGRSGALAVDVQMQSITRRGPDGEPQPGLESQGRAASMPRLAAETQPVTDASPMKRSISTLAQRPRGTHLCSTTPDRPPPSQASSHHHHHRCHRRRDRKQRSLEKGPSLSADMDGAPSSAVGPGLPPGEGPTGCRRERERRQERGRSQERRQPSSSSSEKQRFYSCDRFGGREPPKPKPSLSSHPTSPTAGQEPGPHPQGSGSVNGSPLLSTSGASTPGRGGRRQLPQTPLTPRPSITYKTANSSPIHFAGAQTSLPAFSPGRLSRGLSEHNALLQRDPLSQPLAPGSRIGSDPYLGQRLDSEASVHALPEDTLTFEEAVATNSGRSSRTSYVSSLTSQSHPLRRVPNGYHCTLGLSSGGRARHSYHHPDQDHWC
T8 sequence (Q02410 whole entry): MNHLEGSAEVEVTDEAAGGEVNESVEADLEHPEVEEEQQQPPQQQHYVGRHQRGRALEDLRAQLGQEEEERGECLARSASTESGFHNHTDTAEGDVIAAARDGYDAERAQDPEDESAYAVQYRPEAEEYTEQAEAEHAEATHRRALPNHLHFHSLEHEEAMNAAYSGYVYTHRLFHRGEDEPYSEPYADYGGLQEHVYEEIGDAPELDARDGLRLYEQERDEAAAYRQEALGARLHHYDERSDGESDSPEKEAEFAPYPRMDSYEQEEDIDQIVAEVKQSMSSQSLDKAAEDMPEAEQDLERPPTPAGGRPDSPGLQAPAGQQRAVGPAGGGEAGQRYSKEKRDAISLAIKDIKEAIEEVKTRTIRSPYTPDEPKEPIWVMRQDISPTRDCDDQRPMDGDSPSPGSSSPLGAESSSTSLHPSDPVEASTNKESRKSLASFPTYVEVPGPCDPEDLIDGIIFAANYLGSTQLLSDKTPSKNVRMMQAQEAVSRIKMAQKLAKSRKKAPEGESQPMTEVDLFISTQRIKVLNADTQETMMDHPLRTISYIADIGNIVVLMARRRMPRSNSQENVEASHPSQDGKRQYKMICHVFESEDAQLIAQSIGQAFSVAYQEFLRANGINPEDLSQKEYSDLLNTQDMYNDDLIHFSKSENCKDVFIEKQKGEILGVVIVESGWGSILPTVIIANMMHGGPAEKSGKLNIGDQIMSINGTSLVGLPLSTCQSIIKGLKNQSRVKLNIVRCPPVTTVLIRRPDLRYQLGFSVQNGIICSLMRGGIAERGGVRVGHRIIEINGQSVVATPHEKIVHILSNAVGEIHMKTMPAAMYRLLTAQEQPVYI

Cytochrome P450 3A4 = Cytochrome P450 3A4 (Homo sapiens, UniProt P08684);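 further: CYP3A4 tested as one member of a cytochrome P450 panel screen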
Chain of Cytochrome P450 3A4 (P08684 whole entry): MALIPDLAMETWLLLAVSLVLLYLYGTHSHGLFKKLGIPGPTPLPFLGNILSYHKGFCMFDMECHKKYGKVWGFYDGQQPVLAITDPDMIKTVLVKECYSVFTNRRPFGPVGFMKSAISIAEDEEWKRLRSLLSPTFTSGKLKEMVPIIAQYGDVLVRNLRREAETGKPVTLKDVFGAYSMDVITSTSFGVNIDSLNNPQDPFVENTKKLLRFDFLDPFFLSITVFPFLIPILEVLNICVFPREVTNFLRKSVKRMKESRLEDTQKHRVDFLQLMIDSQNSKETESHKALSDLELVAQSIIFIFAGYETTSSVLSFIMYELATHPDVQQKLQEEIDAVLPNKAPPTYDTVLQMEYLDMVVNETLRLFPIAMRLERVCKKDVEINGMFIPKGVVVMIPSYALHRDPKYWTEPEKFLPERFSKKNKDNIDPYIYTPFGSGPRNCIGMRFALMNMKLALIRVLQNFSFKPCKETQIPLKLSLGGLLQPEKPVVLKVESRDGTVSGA

cells = assay type: functional
[7] = biological target: Glucose-6-phosphate 1-dehydrogenase (Homo sapiens, UniProt P11413); assay: inhibition of Homo sapiens G6PD, dose series – biochemical, fluorescence, selectivity assay for P. falciparum G6PD inhibitor project, dose response (AID 504792); assay type: functional
Chain of Glucose-6-phosphate 1-dehydrogenase (P11413 whole entry): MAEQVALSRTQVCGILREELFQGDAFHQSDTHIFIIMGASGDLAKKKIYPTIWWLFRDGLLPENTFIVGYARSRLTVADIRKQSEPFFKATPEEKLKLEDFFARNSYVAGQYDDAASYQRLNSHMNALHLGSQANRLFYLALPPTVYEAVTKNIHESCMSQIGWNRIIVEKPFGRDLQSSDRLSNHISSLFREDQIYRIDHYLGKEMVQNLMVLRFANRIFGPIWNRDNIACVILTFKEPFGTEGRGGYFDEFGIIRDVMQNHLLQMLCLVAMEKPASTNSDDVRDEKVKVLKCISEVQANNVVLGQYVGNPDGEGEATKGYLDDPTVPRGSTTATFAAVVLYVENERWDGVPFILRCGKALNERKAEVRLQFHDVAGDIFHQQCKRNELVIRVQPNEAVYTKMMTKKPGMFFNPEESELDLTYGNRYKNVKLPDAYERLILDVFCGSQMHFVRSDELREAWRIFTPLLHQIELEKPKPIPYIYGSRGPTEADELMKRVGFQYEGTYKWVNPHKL

[8] = biological target: T8, Voltage-gated N-type calcium channel alpha-1B subunit/Amyloid beta A4 precursor protein-binding family A member 1; assay type: protein assay; remark: listed apart in the source
[9] = biological target: DNA dC->dU-editing enzyme APOBEC-3A (Homo sapiens, UniProt P31941); assay: A3A deaminase inhibition for selectivity – biochemical, dose response (AID 504722); assay type: functional
Chain of DNA dC->dU-editing enzyme APOBEC-3A (P31941 whole entry): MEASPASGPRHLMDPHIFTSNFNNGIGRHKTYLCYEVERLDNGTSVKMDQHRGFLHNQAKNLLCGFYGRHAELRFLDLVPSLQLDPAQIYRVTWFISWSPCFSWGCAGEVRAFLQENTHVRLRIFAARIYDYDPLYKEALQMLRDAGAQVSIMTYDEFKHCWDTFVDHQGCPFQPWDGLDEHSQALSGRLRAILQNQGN

[10] = biological target: DNA dC->dU-editing enzyme APOBEC-3G (Homo sapiens, UniProt Q9HC16); assay: Dose Response confirmation of small molecule APOBEC3G DNA Deaminase Inhibitors via a fluorescence-based single-stranded DNA deaminase assay. [Related pubchem assays (depositor defined):AID493012, AID493028]; assay type: functional
Chain of DNA dC->dU-editing enzyme APOBEC-3G (Q9HC16 whole entry): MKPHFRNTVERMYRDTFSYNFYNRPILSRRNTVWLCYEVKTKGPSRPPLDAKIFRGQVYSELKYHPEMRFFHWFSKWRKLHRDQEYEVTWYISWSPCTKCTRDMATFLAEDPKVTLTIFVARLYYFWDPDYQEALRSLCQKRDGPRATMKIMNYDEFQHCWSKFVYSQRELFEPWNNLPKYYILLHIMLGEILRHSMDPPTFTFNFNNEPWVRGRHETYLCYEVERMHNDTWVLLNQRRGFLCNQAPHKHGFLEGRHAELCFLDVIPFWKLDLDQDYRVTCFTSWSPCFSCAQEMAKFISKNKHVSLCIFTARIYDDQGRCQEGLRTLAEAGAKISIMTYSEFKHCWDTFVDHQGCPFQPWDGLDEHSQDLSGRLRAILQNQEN

[11] = biological target: Eukaryotic translation initiation factor 4E (Mus musculus, UniProt P63073); assay: blockers of eIF4G binding by eIF4E – biochemical, TR-FRET, dose response (AID 855); assay type: functional;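 further: potency for disrupting eIF4E binding to eIF4GI seen as loss of FRET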
Chain of Eukaryotic translation initiation factor 4E (P63073 whole entry): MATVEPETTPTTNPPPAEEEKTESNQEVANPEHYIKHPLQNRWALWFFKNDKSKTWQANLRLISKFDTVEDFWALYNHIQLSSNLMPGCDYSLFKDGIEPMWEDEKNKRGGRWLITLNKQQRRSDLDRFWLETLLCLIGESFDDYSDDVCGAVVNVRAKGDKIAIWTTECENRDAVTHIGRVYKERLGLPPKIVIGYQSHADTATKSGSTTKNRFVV

Cc1cc(C2=NN=C(Nc3ccc(S(=O)(=O)N4CCOCC4)cc3)SC2)c(C)n1C
EC50 (Hexokinase HKDC1): 24.7 µM (inactive) | EC50 (Hexokinase-1): 46 µM (inactive)

Cc1cccc(NC(=O)Cn2cc(C(=O)c3ccco3)c3ccccc32)c1
IC50 [1]: > 119 µM (inactive) | IC50 (Exodeoxyribonuclease V): > 119 µM (inactive) | IC50 (Estrogen receptor): > 50 µM (not active)

C#CCOCCOCCOCCNc1nc(N2CCN(C(=O)CCCCCCCCCCNC(=O)[C@@H](CCSC)n3cc(CCO)nn3)CC2)nc(N2CCN(C(=O)CCCCCCCCCCNC(=O)[C@H](CCCN=C(N)N)n3cc(C[C@@H](C)CC)nn3)CC2)n1
IC50 [2]: 3.03 µM (active) | IC50 (Bcl-2-related protein A1): 3.08 µM (active) | IC50 [3]: 5.55 µM (active)

COc1cc(/N=c2\ssnc2Cl)cc(OC)c1OC
IC50 [4]: 80 µM (inactive) | IC50 [5]: 4.76 µM (active) | EC50 (Hexokinase HKDC1): 56.9 µM (inactive) | IC50 [6]: 5.22 µM (active) | AC50 (Cytochrome P450 3A4): 31.6 µM (inconclusive) | IC50 (cells): 43.6 µM (active) | IC50 [7]: 69.4 µM (inactive) | IC50 [8]: 10.8 µM (active) | EC50 (Hexokinase-1): 55.3 µM (inactive) | IC50 [9]: > 100 µM (inactive) | IC50 [10]: 7.2 µM (active) | IC50 [11]: 20.4 µM (active)
